{"source": "ChEMBL document CHEMBL4651402", "about": "“Screening of ~5500 FDA-approved drugs and clinical candidates for anti-SARS-CoV-2 activity” (2021)", "tested_on": "SARS-CoV-2", "assay": "microbe, parasite or virus in culture", "conditions": "Severe acute respiratory syndrome coronavirus 2, Vero C1008, 48 h", "data": [{"smiles": "CCCCN(CCCC)CCNc1nc(-c2ccccc2)no1", "note": "[BUTALAMINE]", "values": [{"measurement": "IC50", "result": "> 20", "unit": "µM"}, {"measurement": "IC50", "setting": "read-out: pIC50 (converted)", "result": "> 20", "unit": "µM"}]}, {"smiles": "C=CCC1(CC(C)C)C(=O)NC(=O)NC1=O", "note": "[BUTALBITAL]", "values": [{"measurement": "IC50", "result": "> 20", "unit": "µM"}, {"measurement": "IC50", "setting": "read-out: pIC50 (converted)", "result": "> 20", "unit": "µM"}]}, {"smiles": "CCCCOC(=O)c1ccc(N)cc1", "note": "[BUTAMBEN]", "values": [{"measurement": "IC50", "result": "> 20", "unit": "µM"}, {"measurement": "IC50", "setting": "read-out: pIC50 (converted)", "result": "> 20", "unit": "µM"}]}, {"smiles": "CCC(C(=O)OCCOCCN(CC)CC)c1ccccc1", "note": "(stereo unspecified) [BUTAMIRATE]", "values": [{"measurement": "IC50", "result": "> 20", "unit": "µM"}, {"measurement": "IC50", "setting": "read-out: pIC50 (converted)", "result": "> 20", "unit": "µM"}]}, {"smiles": "O=C(c1ccc(F)cc1)C1CCN(CCCCn2c(=O)[nH]c3ccccc3c2=O)CC1", "note": "[BUTANSERIN]", "values": [{"measurement": "IC50", "result": "> 20", "unit": "µM"}, {"measurement": "IC50", "setting": "read-out: pIC50 (converted)", "result": "> 20", "unit": "µM"}]}, {"smiles": "CCCC(=O)c1ccc2c(c1)N(CCCN1CCN(C)CC1)c1ccccc1S2", "note": "[BUTAPERAZINE]", "values": [{"measurement": "IC50", "result": "> 20", "unit": "µM"}, {"measurement": "IC50", "setting": "read-out: pIC50 (converted)", "result": "> 20", "unit": "µM"}]}, {"smiles": "O=C(/C=C/c1ccc(O)c(O)c1)c1ccc(O)cc1O", "note": "[BUTEIN]", "values": [{"measurement": "IC50", "result": "> 20", "unit": "µM"}, {"measurement": "IC50", "setting": "read-out: pIC50 (converted)", "result": "> 20", "unit": "µM"}]}, {"smiles": "CN(Cc1ccc(C(C)(C)C)cc1)Cc1cccc2ccccc12", "note": "[BUTENAFINE]", "values": [{"measurement": "IC50", "result": "> 20", "unit": "µM"}, {"measurement": "IC50", "setting": "read-out: pIC50 (converted)", "result": "> 20", "unit": "µM"}]}, {"smiles": "CCC(C(=O)OCCN(CC)CC)c1ccccc1", "note": "(stereo unspecified) [BUTETAMATE]", "values": [{"measurement": "IC50", "result": "> 20", "unit": "µM"}, {"measurement": "IC50", "setting": "read-out: pIC50 (converted)", "result": "> 20", "unit": "µM"}]}, {"smiles": "CCCCS(=N)(=O)CCC(N)C(=O)O", "note": "(stereo unspecified) [BUTHIONINE SULFOXIMINE]", "values": [{"measurement": "IC50", "result": "> 20", "unit": "µM"}, {"measurement": "IC50", "setting": "read-out: pIC50 (converted)", "result": "> 20", "unit": "µM"}]}, {"smiles": "Clc1ccc(CCC(Cn2ccnc2)Sc2c(Cl)cccc2Cl)cc1", "note": "(stereo unspecified) [BUTOCONAZOLE]", "values": [{"measurement": "IC50", "result": "> 20", "unit": "µM"}, {"measurement": "IC50", "setting": "read-out: pIC50 (converted)", "result": "> 20", "unit": "µM"}]}, {"smiles": "CCCC(=O)c1cc(F)ccc1OCC(O)CNC(C)(C)C", "note": "(stereo unspecified) [BUTOFILOLOL]", "values": [{"measurement": "IC50", "result": "> 20", "unit": "µM"}, {"measurement": "IC50", "setting": "read-out: pIC50 (converted)", "result": "> 20", "unit": "µM"}]}, {"smiles": "Oc1ccc2c(c1)[C@@]13CCCC[C@@]1(O)[C@@H](C2)N(CC1CCC1)CC3", "note": "[BUTORPHANOL]", "values": [{"measurement": "IC50", "result": "> 20", "unit": "µM"}, {"measurement": "IC50", "setting": "read-out: pIC50 (converted)", "result": "> 20", "unit": "µM"}]}, {"smiles": "COc1ccc(OC)c(C(O)C(C)NC(C)(C)C)c1", "note": "(stereo unspecified) [BUTOXAMINE]", "values": [{"measurement": "IC50", "result": "> 20", "unit": "µM"}, {"measurement": "IC50", "setting": "read-out: pIC50 (converted)", "result": "> 20", "unit": "µM"}]}, {"smiles": "CC(CC1c2ccccc2CCc2ccccc21)CN(C)C", "note": "(stereo unspecified) [BUTRIPTYLINE]", "values": [{"measurement": "IC50", "result": "> 20", "unit": "µM"}, {"measurement": "IC50", "setting": "read-out: pIC50 (converted)", "result": "> 20", "unit": "µM"}]}, {"smiles": "CCCCOC(=O)c1ccc(O)cc1", "note": "[BUTYLPARABEN]", "values": [{"measurement": "IC50", "result": "> 20", "unit": "µM"}, {"measurement": "IC50", "setting": "read-out: pIC50 (converted)", "result": "> 20", "unit": "µM"}]}, {"smiles": "CCCC[N+]1(C)[C@@H]2C[C@@H](OC(=O)[C@H](CO)c3ccccc3)C[C@H]1[C@@H]1O[C@@H]12", "note": "(stereo partly specified) [BUTYLSCOPOLAMINE]", "values": [{"measurement": "IC50", "result": "> 20", "unit": "µM"}, {"measurement": "IC50", "setting": "read-out: pIC50 (converted)", "result": "> 20", "unit": "µM"}]}, {"smiles": "CCCC(=O)O", "note": "[BUTYRIC ACID]", "values": [{"measurement": "IC50", "result": "> 20", "unit": "µM"}, {"measurement": "IC50", "setting": "read-out: pIC50 (converted)", "result": "> 20", "unit": "µM"}]}, {"smiles": "O=C1CCCO1", "note": "[BUTYROLACTONE]", "values": [{"measurement": "IC50", "result": "> 20", "unit": "µM"}, {"measurement": "IC50", "setting": "read-out: pIC50 (converted)", "result": "> 20", "unit": "µM"}]}, {"smiles": "C[N+]1(CCC(C(N)=O)(c2ccccc2)c2ccccc2)CCCCCC1", "note": "[BUZEPIDE]", "values": [{"measurement": "IC50", "result": "> 20", "unit": "µM"}, {"measurement": "IC50", "setting": "read-out: pIC50 (converted)", "result": "> 20", "unit": "µM"}]}, {"smiles": "C[C@@H]1CN(Cc2ccc(F)cc2)CCN1C(=O)COc1ccc(Cl)cc1NC(N)=O", "note": "[BX 471 FREE BASE]", "values": [{"measurement": "IC50", "result": "> 20", "unit": "µM"}, {"measurement": "IC50", "setting": "read-out: pIC50 (converted)", "result": "> 20", "unit": "µM"}]}, {"smiles": "COc1cc2nccc(Oc3ccc(NC(=O)C4(C(=O)Nc5ccc(F)cc5)CC4)cc3)c2cc1OC", "note": "[CABOZANTINIB]", "values": [{"measurement": "IC50", "result": "> 20", "unit": "µM"}, {"measurement": "IC50", "setting": "read-out: pIC50 (converted)", "result": "> 20", "unit": "µM"}]}, {"smiles": "O=C(O)c1cn(C2CC2)c2cc(N3CCC(O)(COc4ccc(N5C[C@H](CO)OC5=O)cc4F)CC3)c(F)cc2c1=O", "note": "[CADAZOLID]", "values": [{"measurement": "IC50", "result": "> 20", "unit": "µM"}, {"measurement": "IC50", "setting": "read-out: pIC50 (converted)", "result": "> 20", "unit": "µM"}]}, {"smiles": "CC(=O)OC[C@@]1(O)C[C@@]23CC[C@@H]4c5ccoc5CC[C@@]4(C)[C@@H]2CC[C@@H]1C3", "note": "[CAFESTOL ACETATE]", "values": [{"measurement": "IC50", "result": "> 20", "unit": "µM"}, {"measurement": "IC50", "setting": "read-out: pIC50 (converted)", "result": "> 20", "unit": "µM"}]}, {"smiles": "C=C1/C(=C\\C=C2/CCC[C@]3(C)[C@@H]([C@H](C)/C=C/[C@@H](O)C4CC4)CC[C@@H]23)C[C@@H](O)C[C@@H]1O", "note": "[CALCIPOTRIENE]", "values": [{"measurement": "IC50", "result": "> 20", "unit": "µM"}, {"measurement": "IC50", "setting": "read-out: pIC50 (converted)", "result": "> 20", "unit": "µM"}]}, {"smiles": "O=S(=O)(O)c1cc(O)ccc1O", "note": "[CALCIUM DOBESILATE]", "values": [{"measurement": "IC50", "result": "> 20", "unit": "µM"}, {"measurement": "IC50", "setting": "read-out: pIC50 (converted)", "result": "> 20", "unit": "µM"}]}, {"smiles": "CC[C@@]1(O)C(=O)OCc2c1cc1n(c2=O)Cc2cc3ccccc3nc2-1", "note": "[CAMPTOTHECIN]", "values": [{"measurement": "IC50", "result": "> 20", "unit": "µM"}, {"measurement": "IC50", "setting": "read-out: pIC50 (converted)", "result": "> 20", "unit": "µM"}]}, {"smiles": "CCN(CC)CCNC(C(=O)OCCC(C)C)c1ccccc1", "note": "(stereo unspecified) [CAMYLOFIN]", "values": [{"measurement": "IC50", "result": "> 20", "unit": "µM"}, {"measurement": "IC50", "setting": "read-out: pIC50 (converted)", "result": "> 20", "unit": "µM"}]}, {"smiles": "Cc1ccc([C@@H]2O[C@H](CO)[C@@H](O)[C@H](O)[C@H]2O)cc1Cc1ccc(-c2ccc(F)cc2)s1", "note": "[CANAGLIFLOZIN ANHYDROUS]", "values": [{"measurement": "IC50", "result": "> 20", "unit": "µM"}, {"measurement": "IC50", "setting": "read-out: pIC50 (converted)", "result": "> 20", "unit": "µM"}]}, {"smiles": "NC(N)=NOCC[C@H](N)C(=O)O", "note": "[CANAVANINE]", "values": [{"measurement": "IC50", "result": "> 20", "unit": "µM"}, {"measurement": "IC50", "setting": "read-out: pIC50 (converted)", "result": "> 20", "unit": "µM"}]}, {"smiles": "C=CC(=O)Nc1cc2c(Nc3ccc(F)c(Cl)c3)ncnc2cc1OCCCN1CCOCC1", "note": "[CANERTINIB]", "values": [{"measurement": "IC50", "result": "> 20", "unit": "µM"}, {"measurement": "IC50", "setting": "read-out: pIC50 (converted)", "result": "> 20", "unit": "µM"}]}, {"smiles": "C=C(C)[C@@H]1CCC(C)=C[C@H]1c1c(O)cc(CCCCC)cc1O", "note": "[CANNABIDIOL]", "values": [{"measurement": "IC50", "result": "> 20", "unit": "µM"}, {"measurement": "IC50", "setting": "read-out: pIC50 (converted)", "result": "> 20", "unit": "µM"}]}, {"smiles": "C[C@]12CCC(=O)C=C1C=C[C@@H]1[C@@H]2CC[C@@]2(C)[C@H]1CC[C@@]21CCC(=O)O1", "note": "[CANRENONE]", "values": [{"measurement": "IC50", "result": "> 20", "unit": "µM"}, {"measurement": "IC50", "setting": "read-out: pIC50 (converted)", "result": "> 20", "unit": "µM"}]}, {"smiles": "C[C@@]12C(=O)OC(=O)[C@]1(C)[C@H]1CC[C@@H]2O1", "note": "[CANTHARIDIN]", "values": [{"measurement": "IC50", "result": "> 20", "unit": "µM"}, {"measurement": "IC50", "setting": "read-out: pIC50 (converted)", "result": "> 20", "unit": "µM"}]}, {"smiles": "CCCCCOC(=O)Nc1nc(=O)n([C@@H]2O[C@H](C)[C@@H](O)[C@H]2O)cc1F", "note": "[CAPECITABINE]", "values": [{"measurement": "IC50", "result": "> 20", "unit": "µM"}, {"measurement": "IC50", "setting": "read-out: pIC50 (converted)", "result": "> 20", "unit": "µM"}]}, {"smiles": "NC1(C(=O)N[C@@H](CCO)c2ccc(Cl)cc2)CCN(c2nc[nH]c3nccc2-3)CC1", "note": "[CAPIVASERTIB]", "values": [{"measurement": "IC50", "result": "> 20", "unit": "µM"}, {"measurement": "IC50", "setting": "read-out: pIC50 (converted)", "result": "> 20", "unit": "µM"}]}, {"smiles": "CNC(=O)c1ccc(-c2cnc3ncc(Cc4ccc5ncccc5c4)n3n2)cc1F", "note": "[CAPMATINIB]", "values": [{"measurement": "IC50", "result": "> 20", "unit": "µM"}, {"measurement": "IC50", "setting": "read-out: pIC50 (converted)", "result": "> 20", "unit": "µM"}]}, {"smiles": "COc1cc(C(=O)NCCCCCC(=O)O)cc(OC)c1OC", "note": "[CAPOBENIC ACID]", "values": [{"measurement": "IC50", "result": "> 20", "unit": "µM"}, {"measurement": "IC50", "setting": "read-out: pIC50 (converted)", "result": "> 20", "unit": "µM"}]}]}
